Here are results for nine compounds from PubChem BioAssay (NCI).

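Five concentrations, 48 hours, 96-well plates. At the GI50, growth is halved. TGI is the concentration that stops growth completely.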

Some test systems named below: A549 NSCLC; CAKI-1 renal; CCRF-CEM leukemia; HCT-116 colon; HS 578T breast; MOLT-4 leukemia; NCI/ADR-RES ovarian; PC-3 prostate; SK-MEL-2 melanoma; UO-31 renal.
Common to all, as to assay: NCI tumour cell line growth inhibition, 48 h

Take `COC(=O)[C@H](Cc1cn(C)cn1)NC(=O)[C@@H](NC(=O)Nc1cc(C(F)(F)F)cc(C(F)(F)F)c1)C(C)C`: the GI50 in the assay with A549 NSCLC was greater than 10 µM; in the assay with CAKI-1 renal, greater than 10 µM; in the assay on CCRF-CEM leukemia it was 3.15 µM; with HCT-116 colon, 1.82 µM; in the assay on HS 578T breast it was 4.83 µM; in the assay with MOLT-4 leukemia, 3.16 µM. The GI50 is greater than 10 µM with NCI/ADR-RES ovarian, 4.35 µM in the assay on PC-3 prostate, greater than 10 µM in the assay with SK-MEL-2 melanoma and greater than 10 µM in the assay on UO-31 renal. For the same compound, the TGI is greater than 10 µM in the assay on A549 NSCLC; greater than 10 µM in the assay on CAKI-1 renal; greater than 10 µM in the assay on CCRF-CEM leukemia; 3.55 µM in the assay on HCT-116 colon; greater than 10 µM with HS 578T breast; greater than 10 µM in the assay on MOLT-4 leukemia. Further, the TGI with NCI/ADR-RES ovarian, in the assay on PC-3 prostate, in the assay with SK-MEL-2 melanoma and in the assay on UO-31 renal was greater than 10 µM throughout.
`COc1ccc(/C(CC2OC(=O)c3ccccc32)=N\NC(N)=O)cc1` (stereo not given): the TGI in the assay on A549 NSCLC, in the assay with CAKI-1 renal, with CCRF-CEM leukemia, in the assay on HCT-116 colon, in the assay with HS 578T breast and in the assay with MOLT-4 leukemia was greater than 100 µM in each case. For the same compound, the TGI in the assay with NCI/ADR-RES ovarian, in the assay on PC-3 prostate, in the assay on SK-MEL-2 melanoma and in the assay with UO-31 renal was greater than 100 µM each time.
In the case of `COc1cc(N(CCC#N)CCC#N)ccc1/C(N=Nc1ccc(C(=O)O)cc1)=N/NC(=O)c1cc(Br)ccc1O`, the GI50 with A549 NSCLC was 79.4 µg/mL; with CAKI-1 renal, 130 µg/mL; with CCRF-CEM leukemia it was 82.4 µg/mL; with HCT-116 colon, 62.8 µg/mL; in the assay with HS 578T breast, 77.3 µg/mL; with MOLT-4 leukemia, 67.5 µg/mL. The GI50 with NCI/ADR-RES ovarian is 49.4 µg/mL; in the assay with PC-3 prostate it was 81 µg/mL; in the assay with SK-MEL-2 melanoma, greater than 150 µg/mL; with UO-31 renal, 107 µg/mL. The TGI in the assay on A549 NSCLC, in the assay with CAKI-1 renal, in the assay on CCRF-CEM leukemia, in the assay on HCT-116 colon, with HS 578T breast and in the assay on MOLT-4 leukemia was greater than 150 µg/mL throughout. Further, the TGI in the assay on NCI/ADR-RES ovarian, in the assay with PC-3 prostate, in the assay on SK-MEL-2 melanoma and in the assay with UO-31 renal was greater than 150 µg/mL throughout.
For `Cn1ccnc1C(=O)/C=C/c1ccc(C(=O)Nc2c(F)c(F)c(F)c(F)c2F)cc1`, the GI50 was 1.79 µM with A549 NSCLC; 1.53 µM with CAKI-1 renal; 1.68 µM with CCRF-CEM leukemia; 1.17 µM in the assay with HCT-116 colon; 2.1 µM in the assay on HS 578T breast; 1.91 µM in the assay on MOLT-4 leukemia. For the same compound, the GI50 with NCI/ADR-RES ovarian was 3.09 µM; in the assay with PC-3 prostate, 1.62 µM; in the assay on SK-MEL-2 melanoma, 2.18 µM; in the assay with UO-31 renal, 1.47 µM. Also, the TGI in the assay with A549 NSCLC worked out at 4.16 µM; in the assay with CAKI-1 renal it was 3.11 µM; with CCRF-CEM leukemia it was 4.95 µM; in the assay on HCT-116 colon, 2.48 µM; in the assay with HS 578T breast, 6.44 µM; in the assay with MOLT-4 leukemia, 4.81 µM. Besides, the TGI was 12.9 µM in the assay with NCI/ADR-RES ovarian, 6.54 µM in the assay on PC-3 prostate, 5.6 µM with SK-MEL-2 melanoma and 2.79 µM in the assay on UO-31 renal.
`COc1cc(/C=C\c2cc(OC)c(OC)c(OC)c2)cc(NS(=O)(=O)c2ccc(Cl)cc2)c1OC`: the GI50 is 0.716 µM in the assay with A549 NSCLC; 0.374 µM with CAKI-1 renal; 0.388 µM with CCRF-CEM leukemia; 0.469 µM in the assay on HCT-116 colon; 0.351 µM in the assay on HS 578T breast; 0.672 µM with MOLT-4 leukemia. For the same compound, the GI50 is 0.365 µM in the assay with NCI/ADR-RES ovarian, 0.395 µM with PC-3 prostate, 0.613 µM with SK-MEL-2 melanoma and 0.696 µM with UO-31 renal. Further, the TGI was greater than 100 µM in the assay on A549 NSCLC; 50 µM in the assay on CAKI-1 renal; greater than 100 µM in the assay on CCRF-CEM leukemia; greater than 100 µM in the assay with HCT-116 colon; greater than 100 µM with HS 578T breast; 31.9 µM with MOLT-4 leukemia. The TGI in the assay with NCI/ADR-RES ovarian is greater than 100 µM; with PC-3 prostate, greater than 100 µM; with SK-MEL-2 melanoma it was 50.7 µM; in the assay on UO-31 renal, greater than 100 µM.
As to `C#Cc1cccc(NC(=O)C2CCCN(C(=O)CCl)C2)c1` (stereo not given), the GI50 in the assay with A549 NSCLC was greater than 82.5 µM; in the assay with CAKI-1 renal, greater than 82.5 µM; in the assay with CCRF-CEM leukemia, 21.7 µM; in the assay on HCT-116 colon it was 45.9 µM; in the assay with HS 578T breast, greater than 82.5 µM; with MOLT-4 leukemia, 23.4 µM. Further, the GI50 in the assay with NCI/ADR-RES ovarian was greater than 82.5 µM; with PC-3 prostate it was greater than 82.5 µM; in the assay on SK-MEL-2 melanoma, greater than 82.5 µM; with UO-31 renal, 12.9 µM. Moreover, the TGI in the assay on A549 NSCLC is greater than 82.5 µM; with CAKI-1 renal, greater than 82.5 µM; in the assay on CCRF-CEM leukemia it was 64.4 µM; in the assay with HCT-116 colon, greater than 82.5 µM; in the assay with HS 578T breast, greater than 82.5 µM; with MOLT-4 leukemia it was 75.1 µM. The TGI in the assay on NCI/ADR-RES ovarian was greater than 82.5 µM; in the assay with PC-3 prostate it was greater than 82.5 µM; in the assay with SK-MEL-2 melanoma, greater than 82.5 µM; with UO-31 renal, 26.4 µM.
For the compound `Nc1ncnc2c1nc(Cl)n2C1OC(CO)C(O)C1O` (stereo not given), the TGI is greater than 100 µM in the assay with A549 NSCLC; greater than 100 µM in the assay with CAKI-1 renal; greater than 25.5 µM with CCRF-CEM leukemia; greater than 100 µM in the assay with HCT-116 colon; greater than 100 µM in the assay with HS 578T breast; greater than 100 µM with MOLT-4 leukemia. In addition, the TGI in the assay with NCI/ADR-RES ovarian was greater than 100 µM; in the assay with PC-3 prostate it was greater than 71.2 µM; with SK-MEL-2 melanoma, greater than 100 µM; with UO-31 renal, greater than 100 µM.
For the compound `COc1cccc(C2C(C#N)=C(N)Oc3cc4c(cc32)OCO4)c1` (stereo not given), the GI50 in the assay on A549 NSCLC is 0.0649 µM; with CAKI-1 renal, 0.0409 µM; with CCRF-CEM leukemia it was 0.0362 µM; in the assay on HCT-116 colon it was 0.0459 µM; in the assay on HS 578T breast, 0.0316 µM; with MOLT-4 leukemia it was 0.0745 µM. Also, the GI50 was 0.0299 µM in the assay on NCI/ADR-RES ovarian, 0.0534 µM with PC-3 prostate, 0.0301 µM in the assay on SK-MEL-2 melanoma and 0.169 µM in the assay with UO-31 renal. For the same compound, the TGI in the assay on A549 NSCLC was found to be 42.6 µM; in the assay on CAKI-1 renal it was 42.6 µM; in the assay with CCRF-CEM leukemia, 19.9 µM; in the assay with HCT-116 colon it was 11 µM; in the assay on HS 578T breast it was 25.5 µM; with MOLT-4 leukemia it was 22.6 µM. Also, the TGI is 0.151 µM with NCI/ADR-RES ovarian, 39.5 µM in the assay with PC-3 prostate, 6.77 µM with SK-MEL-2 melanoma and greater than 100 µM in the assay on UO-31 renal.
As to `OCCCCC#Cc1ccccc1C#Cc1ccc(C(F)(F)F)cc1`, the GI50 in the assay on A549 NSCLC is 14.3 µM; in the assay with CAKI-1 renal, 18.6 µM; in the assay with CCRF-CEM leukemia it was 19.6 µM; with HCT-116 colon it was 16.9 µM; in the assay with HS 578T breast, 26.3 µM; in the assay on MOLT-4 leukemia, 13.6 µM. The GI50 in the assay with NCI/ADR-RES ovarian is 15 µM; in the assay on PC-3 prostate it was 17.5 µM; in the assay with SK-MEL-2 melanoma, 16 µM; with UO-31 renal it was 16.3 µM. Further, the TGI amounted to 27.6 µM in the assay with A549 NSCLC; 33.8 µM with CAKI-1 renal; 44.1 µM in the assay with CCRF-CEM leukemia; 35.8 µM in the assay with HCT-116 colon; 65.9 µM with HS 578T breast; 31.4 µM in the assay on MOLT-4 leukemia. Also, the TGI amounted to 30.7 µM in the assay on NCI/ADR-RES ovarian, 35 µM in the assay with PC-3 prostate, 33.9 µM with SK-MEL-2 melanoma and 30.3 µM in the assay with UO-31 renal.
